Measurements as given in patent US20240002416A1 (Rheinische-Friedrich-Wilhelms-Universität Bonn, priority 2020, published 2024).

Legend:
human MRGPRX4-83L [1] = biological target: T1, human MRGPRX4-83L (Homo sapiens, UniProt Q96LA9); assay: Calcium assay (human MRGPRX4 83L), recombinant astrocytes; assay type: cell-based; details: for EC50: calcium mobilization, MRGPRX4-83L, read-out: EC50 ± SEM; for Emax: efficacy based on maximal effect of 1 μM B-16 (set as 100%), read-out: Emax
T1 construct: host or cells: CHO β-arrestin cells
T1 sequence (Q96LA9 whole entry): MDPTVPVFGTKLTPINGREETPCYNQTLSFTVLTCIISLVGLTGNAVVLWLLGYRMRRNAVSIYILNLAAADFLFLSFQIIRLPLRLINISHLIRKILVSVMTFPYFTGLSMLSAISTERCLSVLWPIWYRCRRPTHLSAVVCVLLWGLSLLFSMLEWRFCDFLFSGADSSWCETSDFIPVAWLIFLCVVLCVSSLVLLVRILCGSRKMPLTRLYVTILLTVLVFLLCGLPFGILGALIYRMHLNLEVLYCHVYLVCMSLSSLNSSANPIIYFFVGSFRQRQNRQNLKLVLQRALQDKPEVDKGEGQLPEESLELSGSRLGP
Outline: (§1)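 Read-out for arrestin: β-galactosidase complementation upon β-arrestin recruitment in recombinant CHO cells. Ca2+ flux: astrocytes carrying MRGPRX4-83L; LN229 glioblastoma line with native 83S expression.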

MRGPRX4-83S [2] = biological target: T2, MRGPRX4-83S (Homo sapiens, UniProt Q96LA9, L83S); assay: Calcium assay (human glioblastoma LN229 cells expressing the MRGPRX4-83S); assay type: cell-based; set-up: LN229 glioblastoma cells natively expressing the MRGPRX4-83S; endogenous in cells; host or cells: LN229 human glioblastoma cells; details: for Emax: LN-229, efficacy based on 30 μM H-1 (set as 100%), read-out: Emax; for EC50: calcium mobilization, LN229 cells, MRGPRX4-83S, read-out: EC50 ± SEM
T2 sequence (Q96LA9 whole entry L83S): as the sequence (Q96LA9 whole entry) above, with L83S counted along it
Outline: as §1

MRGPRX4-83S [3] = biological target: T2, MRGPRX4-83S; assay: β-arrestin assay (CHO β-arrestin human MRGPRX4-83S); assay type: cell-based; set-up: host or cells: CHO β-arrestin cells; details: for Emax: efficacy based on 100 nM B-16 (set as 100%), read-out: Emax; for EC50: β-arrestin recruitment, CHO cells, MRGPRX4-83S, read-out: EC50 ± SEM
Outline: as §1

human MRGPRX4-83L [4] = biological target: T1, human MRGPRX4-83L; assay: β-arrestin assay (CHO β-arrestin ARMS1-ProLink 2 human MRGPRX4 83L); assay type: cell-based; details: for EC50: β-arrestin recruitment, CHO cells, MRGPRX4-83L, read-out: EC50 ± SEM; for Emax: efficacy based on maximal effect of 100 nM B-16 (set as 100%), read-out: Emax
Outline: as §1

[5] = Table 1, means of 3-4 experiments

Row | Compound | EC50 (human MRGPRX4-83L [1]; Table 1) [nM] | Emax (human MRGPRX4-83L [1]; Table 1) [%] | Emax (MRGPRX4-83S [2]; Table 2) [%] | EC50 (MRGPRX4-83S [2]; Table 2) [nM] | melting point [°C] | Emax (MRGPRX4-83S [3]; Table 2) [%] | EC50 (MRGPRX4-83S [3]; Table 2) [nM] | EC50 (human MRGPRX4-83L [4]; [5]) [nM] | EC50 (human MRGPRX4-83L [1]; Table 4) [nM] | Emax (human MRGPRX4-83L [1]; Table 4) [%] | Emax (MRGPRX4-83S [2]; Table 3) [%] | EC50 (MRGPRX4-83S [2]; Table 3) [nM] | Emax (MRGPRX4-83S [3]; Table 3) [%] | EC50 (MRGPRX4-83S [3]; Table 3) [nM] | Emax (human MRGPRX4-83L [4]; Table 4) [%] | EC50 (human MRGPRX4-83L [4]; Table 4) [nM] | Emax (human MRGPRX4-83L [4]; Table 1) [%] | also measured
1 | CCn1c(=O)c2[nH]c(CCc3ccc(F)cc3)nc2n(CCCCP(=O)(O)O)c1=O [B-14, (4-(1-Ethyl-8-(4-fluorophenethyl)-2,6-dioxo-1,2,6,7-tetrahydro-3H-purin-3-yl)butyl)phosphonic acid] | 9450 ± 3230 | 99 | 74 | 500 ± 113 | 256 to 260 | 81 | 735 ± 131 | > 10000 | – | – | – | – | – | – | – | – | – | value in brackets beside IC50 >10 (human MRGPRX4-83L [4]; Table 1, bracketed value ± spread in IC50 column, not defined, inhibition of 2.6 μM B-16): 3 ± 15; IC50 (human MRGPRX4-83L [4]; Table 1, inhibition of the effect of 2.6 μM B-16): > 10000 nM
2 | C#CCn1c(=O)c2c(nc(CCc3ccccc3Br)n2CCN)n(CCCCP(=O)(O)O)c1=O [B-51, (4-(7-(2-Aminoethyl)-8-(2-bromophenethyl)-2,6-dioxo-1-(prop-2-yn-1-yl)-1,2,6,7-tetrahydro-3H-purin-3-yl)butyl)phosphonic acid] | – | – | – | – | 159 to 161 | – | – | – | 79.8 ± 36.7 | 102 | 107 | 1.48 ± 0.4 | 99 | 0.932 ± 0.177 | 93 | 566 ± 106 | – | –
3 | C#CCn1c(=O)c2c(nc(CCc3ccc(Br)cc3)n2CC2CCCC2)n(CCCCP(=O)(O)O)c1=O [B-38, (4-(8-(4-Bromophenethyl)-7-(cyclopentylmethyl)-2,6-dioxo-1-(prop-2-yn-1-yl)-1,2,6,7-tetrahydro-3H-purin-3-yl)butyl)phosphonic acid] | – | – | – | – | 129 to 131 | – | – | – | 267 ± 153 | 9 | 6 | 5.81 ± 0.58 | 79 | 13.4 ± 0.8 | 92 | 1.44 ± 0.32 | – | IC50 (human MRGPRX4-83L [1]): 949 ± 308 nM; IC50 (MRGPRX4-83S [2]): 5.23 ± 2.2 nM
4 | C#CCn1c(=O)c2[nH]c(CCc3ccc(OC)cc3OC)nc2n(CCCCP(=O)(O)O)c1=O [B-10, (4-(8-(2,4-Dimethoxyphenethyl)-2,6-dioxo-1-(prop-2-yn-1-yl)-1,2,6,7-tetrahydro-3H-purin-3-yl)butyl)phosphonic acid] | 425 ± 187 | 113 | 82 | 30.6 ± 3.1 | 255 to 257 | 87 | 71.4 ± 19.3 | 14500 ± 2400 | – | – | – | – | – | – | – | – | 100 | –
5 | C#CCn1c(=O)c2[nH]c(CCc3cccc(C)c3)nc2n(CCCCP(=O)(O)O)c1=O [B-5, (4-(8-(3-Methylphenethyl)-2,6-dioxo-1-(prop-2-yn-1-yl)-1,2,6,7-tetrahydro-3H-purin-3-yl)butyl)phosphonic acid] | 492 ± 38 | 91 | 96 | 18.1 ± 1.5 | 244 to 246 | 103 | 34.3 ± 7.6 | 15200 ± 520 | – | – | – | – | – | – | – | – | 99 | –
